Reference: PMC7822874, “Chemoprotective antimalarials identified through quantitative high-throughput screening of Plasmodium blood and liver stage parasites” (Scientific Reports, 2021)
Where two headings read alike, the source gives them in different places.

Key:
[1] = in vitro; conditions: human
[2] = in vitro; conditions: human, n = 1
[3] = test system: Plasmodium falciparum Dd2 asexual blood stage parasites; test: microbe, parasite or virus in culture; parameters: species or system Plasmodium falciparum Dd2 in human erythrocytes; single determination (one 11-point concentration-response curve); conditions: Plasmodium falciparum, DD2, Erythrocyte, 72 h; read-out: AC50
[4] = test system: P. berghei-ANKA-GFP-LucCON liver stage parasites in HepG2-A16-CD81EGFP cells; test: P. berghei liver stage Pb-Luc assay, Method 1 (UCSD, 1536-well); type: cell-based, Plasmodium berghei; conditions: for activity at 1 µM / activity at 3 µM: 48 h, average of 2 wells on a 1536 well plate; for activity at 1 µM: 1 uM (compounds provided at 10 mM); for activity at 3 µM: 3 uM (compounds provided at 10 mM); for Max Resp (signal direction of the dose response): Decrease = decreasing P. berghei viability with dose, Increase = increasing signal, Inactive = no dose response
[5] = HepG2-A16-CD81EGFP cells, uninfected
[6] = Plasmodium berghei, column 11, read-out: Pb-Luc (P. berghei liver stage), % of control, lower concentration, first repeat
[7] = Plasmodium berghei, column 12, read-out: Pb-Luc (P. berghei liver stage), % of control, lower concentration, second repeat
[8] = Plasmodium berghei, column 8, read-out: Pb-Luc (P. berghei liver stage), % of control, higher concentration, first repeat
[9] = Plasmodium berghei, column 9, read-out: Pb-Luc (P. berghei liver stage), % of control, higher concentration, second repeat

| Structure (SMILES) | CC50 at 48 h ([2]; HepG2 cells) | AC50 [3] | viability at 48 h, 1 µM [1, 5] | viability at 48 h, 3 µM [1, 5] | further results |
| --- | --- | --- | --- | --- | --- |
| CCOC(=O)C1CCN(C(=O)c2c(C)oc3c2C(=O)c2ccccc2C3=O)CC1 [MLS000724686-01] | 15.3 µM | 0.531 µM |  |  | viability at 66 h [1, 5]: 103% |
| O=C(Nc1nc(-c2ccccn2)cs1)c1cccc(S(=O)(=O)N2CCOCC2)c1 [MLS002161290-01] | 9.68 µM | 5.96 µM | 98% | 60% | activity at 1 µM [4, 6]: 17%; activity at 1 µM [4, 7]: 16%; activity at 3 µM [4, 8]: 7%; activity at 3 µM [4, 9]: 7% |
| c1ccc(-c2cccc(-c3ccccn3)n2)nc1 [MLS000048666-01] |  |  |  |  | viability at 66 h [1]: 17.7%; CC50 at 48 h ([2]; hepg2): 15.3 µM |
| c1ccc(CCNc2nc(-c3ccccn3)nc3ccccc23)cc1 [MLS000769840-01] | 10.9 µM | 4.73 µM | 96.1% |  | viability at 48 h [1, 5]: 96.1%; Max Resp (signal direction of the dose response) ([4]; Method 1): Inactive |
| CCCN(CCC)c1nc(-c2ccccn2)nc2ccccc12 [MLS001165172-01] | 9.68 µM | 5.31 µM | 112% | 90% | activity at 1 µM [4, 6]: 92%; activity at 1 µM [4, 7]: 102%; activity at 3 µM [4, 8]: 8%; activity at 3 µM [4, 9]: 7% |
| C/C(=N\NC(=O)c1ccccc1OCc1ccc(F)cc1)c1ccccn1 [MLS002162875-01] | 17.2 µM | 4.73 µM | 105% | 79% |  |
| O=S(=O)(Nc1cc2nc3ccccc3nc2n1Cc1ccccc1)c1ccc(Cl)cc1 [MLS002583111-01] | 19.3 µM | 1.19 µM |  |  | viability at 66 h [1, 5]: 103% |
| O=C1C(Nc2ccccc2)=C/C(=N\S(=O)(=O)c2cccs2)c2ccccc21 [MLS000374486-01] | 12.2 µM | 0.335 µM | 101% | 76% |  |
| Cc1ccc(NCC(=O)Nc2cccc(F)c2)cc1S(=O)(=O)N1CCCCCC1 [MLS001128515-01] | 27.3 µM |  | 93% | 83% |  |
| O=C(NCCNc1ccnc2cc(Cl)ccc12)c1ccccc1F [MLS001163130-01] | 27.3 µM | 1.68 µM | 106% | 86% |  |
| COc1ccccc1NS(=O)(=O)c1cc(NC(=O)c2ccc(Cl)nc2)ccc1Cl [MLS000417369-01] | 19.3 µM |  |  |  | viability at 66 h [1, 5]: 96.5%; Max Resp (signal direction of the dose response) ([4]; Method 1): Decrease; AC50 ([4]; Method 1, Hill fit, 50% of maximum activity response, read-out: AC50): 2.51 µM; Log AC50 (M) ([4]; Method 1, log10 of molar AC50 from Hill fit): -5.600 M; AC50 ([4]; Plasmodium berghei, Method 1, Hill fit, 50% of maximum activity response, read-out: AC50): 2 µM; AC50 ([4]; Plasmodium berghei, Method 1, log10 of molar AC50 from Hill fit, read-out: Log AC50 (converted)): 2 µM |
| Oc1ccc(-c2nnc(S)n2-c2ccc3c(c2)OCCO3)c(O)c1 [MLS000332001-01] | 17.2 µM | 2.66 µM | 98% | 95% |  |
| COc1cc(NC2CCCCC2O)c2nc(-c3ccc(Cl)cc3)ccc2c1 (centres unmarked) [MLS000766166-01] | 13.7 µM | 5.31 µM | 111% | 101% |  |
| Oc1cc(Nc2ccc(N3CCCCC3)cc2)cc2cccnc12 [NCGC00183804-01] | 17.2 µM | 0.841 µM | 105% | 94% |  |
| COc1cnc(-c2ccccn2)nc1Sc1c(Cl)cccc1Cl [MLS000325774-01] | 24.3 µM | 2.99 µM | 106% | 99% |  |
| CCN1CCN(c2ccc(Nc3ccnc4ccccc34)cc2)CC1 [MLS001360577-01] | 17.2 µM | 1.06 µM | 95% | 91% |  |
| COc1cnc(-c2ccccn2)nc1Sc1ccc(Cl)cc1 [MLS000325700-01] | 24.3 µM | 5.96 µM |  |  |  |
| O=C1NC2(CCCN(Cc3ccccn3)C2)COc2ccccc21 (centres unmarked) [NCGC00477540-01] |  | 4.85 µM |  |  | CC50 at 48 h ([2]; hepg2): 3.14 µM |
| CN(C)CCCn1cnc2c(c1=N)C(c1ccccc1)c1ccc3ccccc3c1O2 (centres unmarked) [MLS001216375-01] | 30.6 µM | 3.76 µM | 111% | 110% |  |

| Structure (SMILES) | CC50 at 48 h ([2]; HepG2 cells) | AC50 [3] | viability at 48 h, 1 µM [1, 5] | viability at 48 h, 3 µM [1, 5] | further results |
| --- | --- | --- | --- | --- | --- |
| O=C(Oc1c(CN2CCOCC2)cc(Cl)c2cccnc12)c1ccccc1Br [MLS000770987-01] | 19.3 µM | 7.5 µM |  |  |  |
| c1ccc(Oc2nc(-c3ccccn3)nc3ccccc23)cc1 [MLS000769533-01] | 9.68 µM | 7.5 µM |  |  |  |
| COc1cnc(-c2ccccn2)nc1NC(C)C [MLS000692222-01] | 15.3 µM | 5.31 µM |  |  |  |
| COc1ccc(Nc2cc(O)c3ncccc3c2)cc1 [NCGC00183797-01] | 19.3 µM | 0.75 µM | 89% | 73% |  |
| CCNC(S)=N/N=C/c1sc(N2CCCCC2)nc1-c1cccs1 [MLS000335256-01] | 15.3 µM | 0.668 µM |  |  | viability at 66 h [1, 5]: 103% |
| COc1cccc(C(NC(C)=O)c2ccc3cccnc3c2O)c1 (centres unmarked) [MLS001204096-01] | 12.2 µM | 4.22 µM |  |  |  |
| CCOC(=O)c1c(C)[nH]c2c1-c1ccccc1C(=O)C2=O [MLS000701140-01] | 10.9 µM | 2.37 µM |  |  |  |
| CC1CCN(S(=O)(=O)c2ccc3c(c2)C(=NO)c2cc(S(=O)(=O)N4CCC(C)CC4)ccc2-3)CC1 [MLS000551434-01] |  | 1.68 µM |  |  | CC50 at 48 h ([2]; hepg2): 21.7 µM |
| CCN(CC)[S+](=O)([O-])c1ccc(NC(=O)CCc2c(C)nc3cc(-c4ccc(Cl)cc4)nn3c2C)cc1 [NCGC00110055-01] | 27.3 µM | 4.73 µM |  |  |  |
| CC(C)Nc1ccc(Nc2ccnc3cc4ccccc4cc23)cc1 [MLS000766754-01] | 27.3 µM |  | 114% | 78% | activity at 1 µM [4, 6]: 101%; activity at 1 µM [4, 7]: 80%; activity at 3 µM [4, 8]: 10%; activity at 3 µM [4, 9]: 14% |
| Cc1cc(Nc2sc(C(=O)c3ccc(F)cc3)c(N)c2C(=O)Nc2ccc(F)cc2)ccc1Cl [NCGC00138324-01] | 2.73 µM | 0.75 µM |  |  |  |
| O=C(NNc1ccnc2cc(Cl)ccc12)C1CCCCC1 [MLS000770801-01] | 12.2 µM | 7.5 µM |  |  |  |
| c1ccc(CNc2nc(-c3ccccn3)nc3ccccc23)cc1 [MLS001165148-01] | 10.9 µM | 5.31 µM | 93% | 87% |  |
| CCCCOCc1cc(CN2CCN(c3cccc(Cl)c3)CC2)c(O)c2ncccc12 [NCGC00114972-01] | 17.2 µM | 6.68 µM |  |  |  |
| c1csc(-c2ccnc(N[C@H]3CO[C@H]4[C@@H]3OC[C@@H]4NCC3CCCCC3)n2)c1 [NCGC00395181-01] | 49.8 µM | 12.2 µM |  |  |  |
| CN(C)CC(O)COc1ccc(C(C)(C)c2ccc(OCC(O)CN(C)C)cc2)cc1 (centres unmarked) [MLS001073934-01] | 21.7 µM | 8.41 µM |  |  |  |
| COc1ccc2[nH]c(C[C@@H]3C[C@@H](C(C)C)[C@H](CNCc4ccccn4)C=C3C)nc2c1 [NCGC00391900-01] | 7.03 µM | 0.769 µM |  |  |  |
| CCCOC(=O)c1[nH]c2c(c1C)C(=O)CC(c1cc(OC)c(OC)c(OC)c1)C2 (centres unmarked) [MLS000116504-01] | 21.7 µM | 6.68 µM |  |  |  |
